In ChEMBL document CHEMBL3045230, “Synthesis and pharmacological evaluation of novel 4-isopropylthiazole-4-phenyl-1,2,4-triazole derivatives as potential antimicrobial and antitubercular agents” (Med Chem Res, 2013):
≈ marks a conversion by molar mass, not a printed value.

What was measured:
Klebsiella pneumoniae = assay: Antimicrobial activity against Klebsiella pneumoniae ATCC 10031 assessed as growth inhibition after 24 hr by broth dilution assay method; format: functional; conditions: ATCC 10031, 24 h
Bacillus subtilis = assay: Antimicrobial activity against Bacillus subtilis ATCC 60511 assessed as growth inhibition after 24 hr by broth dilution assay method; format: functional; conditions: ATCC 60511, 24 h
Enterococcus faecalis = assay: Antimicrobial activity against […] ATCC 14506 assessed as growth inhibition after 24 hr by broth dilution assay method; format: functional; conditions: ATCC 14506, 24 h
Staphylococcus aureus = assay: Antimicrobial activity against Staphylococcus aureus ATCC 11632 assessed as growth inhibition after 24 hr by broth dilution assay method; format: functional; conditions: ATCC 11632, 24 h
[1] = system: Mycobacterium tuberculosis; assay: Antitubercular activity against Mycobacterium tuberculosis H37Rv assessed as growth inhibition after 21 days by broth dilution assay method; format: functional; conditions: 504 h
Aspergillus niger = assay: Antimicrobial activity against Aspergillus niger ATCC 6275 assessed as growth inhibition after 24 hr by broth dilution assay method; format: functional; conditions: ATCC 6275, 24 h
Candida tropicalis = assay: Antimicrobial activity against Candida tropicalis ATCC 1369 assessed as growth inhibition after 24 hr by broth dilution assay method; format: functional; conditions: ATCC 1369, 24 h
Saccharomyces cerevisiae = assay: Antimicrobial activity against Saccharomyces cerevisiae ATCC 9763 assessed as growth inhibition after 24 hr by broth dilution assay method; format: functional; conditions: ATCC 9763, 24 h
Pseudomonas aeruginosa = assay: Antimicrobial activity against Pseudomonas aeruginosa ATCC 10145 assessed as growth inhibition after 24 hr by broth dilution assay method; format: functional; conditions: ATCC 10145, 24 h
Escherichia coli = assay: Antimicrobial activity against Escherichia coli ATCC 10536 assessed as growth inhibition after 24 hr by broth dilution assay method; format: functional; conditions: ATCC 10536, 24 h
[2] = (§1) Cytotoxicity against Homo sapiens (human) A549 cells assessed as viable cells at 250 uM by MTT assay in presence of fetal bovine serum; format: cell-based; conditions: A549 cells, read-out: Activity
A549 = assay: as §1; format: cell-based; conditions: a549, 250 µM

Row | Structure (SMILES) | MIC (Klebsiella pneumoniae) | MIC (Bacillus subtilis) | MIC (Enterococcus faecalis) | MIC (Staphylococcus aureus) | MIC [1] | MIC (Aspergillus niger) | MIC (Candida tropicalis) | MIC (Saccharomyces cerevisiae) | MIC (Pseudomonas aeruginosa) | MIC (Escherichia coli) | viability at 250 µM [2] | Activity (A549)
1 | CC(=O)NNC(=O)CSc1nnc(-c2nc(C(C)C)cs2)n1-c1ccccc1 | 31.2 mg/L (≈ 75 µM) | 62.5 mg/L (≈ 150 µM) | 125 mg/L (≈ 300 µM) | 125 mg/L (≈ 300 µM) | 62.5 mg/L (≈ 150 µM) | 8 mg/L (≈ 19.2 µM) | 8 mg/L (≈ 19.2 µM) | 16 mg/L (≈ 38.4 µM) | 125 mg/L (≈ 300 µM) | 62.5 mg/L (≈ 150 µM) |  | 
2 | CCOC(=O)CSc1nnc(-c2nc(C(C)C)cs2)n1-c1ccccc1 | 125 mg/L (≈ 322 µM) | 62.5 mg/L (≈ 161 µM) | 125 mg/L (≈ 322 µM) | 125 mg/L (≈ 322 µM) | 125 mg/L (≈ 322 µM) | 62.5 mg/L (≈ 161 µM) | 125 mg/L (≈ 322 µM) | 62.5 mg/L (≈ 161 µM) | 62.5 mg/L (≈ 161 µM) | 125 mg/L (≈ 322 µM) |  | 
3 | CC(C)c1csc(-c2nnc(SCC(=O)NN)n2-c2ccccc2)n1 | 8 mg/L (≈ 21.4 µM) | 31.2 mg/L (≈ 83.4 µM) | 31.2 mg/L (≈ 83.4 µM) | 16 mg/L (≈ 42.7 µM) | 16 mg/L (≈ 42.7 µM) | 31.2 mg/L (≈ 83.4 µM) | 31.2 mg/L (≈ 83.4 µM) | 62.5 mg/L (≈ 167 µM) | 8 mg/L (≈ 21.4 µM) | 8 mg/L (≈ 21.4 µM) | 50% | 
4 | COc1ccc(/C=N/NC(=O)CSc2nnc(-c3nc(C(C)C)cs3)n2-c2ccccc2)cc1OC | 16 mg/L (≈ 30.6 µM) | 8 mg/L (≈ 15.3 µM) | 12 mg/L (≈ 23 µM) | 8 mg/L (≈ 15.3 µM) | 8 mg/L (≈ 15.3 µM) | 16 mg/L (≈ 30.6 µM) | 31.2 mg/L (≈ 59.8 µM) | 16 mg/L (≈ 30.6 µM) | 31.2 mg/L (≈ 59.8 µM) | 16 mg/L (≈ 30.6 µM) |  | 
5 | CC(C)c1csc(-c2nnc(SCC(=O)N/N=C/c3ccc(Cl)cc3)n2-c2ccccc2)n1 | 62.5 mg/L (≈ 126 µM) | 31.2 mg/L (≈ 62.9 µM) | 31.2 mg/L (≈ 62.9 µM) | 62.5 mg/L (≈ 126 µM) | 125 mg/L (≈ 251 µM) | 31.2 mg/L (≈ 62.9 µM) | 31.2 mg/L (≈ 62.9 µM) | 16 mg/L (≈ 32.2 µM) | 62.5 mg/L (≈ 126 µM) | 31.2 mg/L (≈ 62.9 µM) |  | 
6 | CC(C)c1csc(-c2nnc(SCC(=O)N/N=C/c3ccc(O)cc3)n2-c2ccccc2)n1 | 16 mg/L (≈ 33.4 µM) | 125 mg/L (≈ 261 µM) | 16 mg/L (≈ 33.4 µM) | 125 mg/L (≈ 261 µM) | 8 mg/L (≈ 16.7 µM) | 31.2 mg/L (≈ 65.3 µM) | 62.5 mg/L (≈ 131 µM) |  | 62.5 mg/L (≈ 131 µM) | 125 mg/L (≈ 261 µM) |  | Toxic
7 | COc1cc(/C=N/NC(=O)CSc2nnc(-c3nc(C(C)C)cs3)n2-c2ccccc2)ccc1O | 8 mg/L (≈ 15.7 µM) | 16 mg/L (≈ 31.5 µM) | 125 mg/L (≈ 246 µM) | 125 mg/L (≈ 246 µM) | 31.2 mg/L (≈ 61.4 µM) | 31.2 mg/L (≈ 61.4 µM) | 62.5 mg/L (≈ 123 µM) | 16 mg/L (≈ 31.5 µM) | 16 mg/L (≈ 31.5 µM) | 8 mg/L (≈ 15.7 µM) |  | 
8 | CC(C)c1csc(-c2nnc(SCC(=O)N/N=C/c3cccc([N+](=O)[O-])c3)n2-c2ccccc2)n1 | 16 mg/L (≈ 31.5 µM) | 31.2 mg/L (≈ 61.6 µM) | 31.2 mg/L (≈ 61.6 µM) | 125 mg/L (≈ 246 µM) | 62.5 mg/L (≈ 123 µM) | 125 mg/L (≈ 246 µM) | 31.2 mg/L (≈ 61.6 µM) | 62.5 mg/L (≈ 123 µM) | 62.5 mg/L (≈ 123 µM) | 31.2 mg/L (≈ 61.6 µM) |  | 
9 | O=C(O)c1cn(C2CC2)c2cc(N3CCNCC3)c(F)cc2c1=O [CIPROFLOXACIN] | ≤ 1 mg/L | ≤ 1 mg/L | ≤ 5 mg/L | ≤ 5 mg/L |  |  |  |  | ≤ 5 mg/L | ≤ 1 mg/L |  | 
10 | OC(Cn1cncn1)(Cn1cncn1)c1ccc(F)cc1F [FLUCONAZOLE] |  |  |  |  |  | ≤ 1 mg/L | ≤ 1 mg/L | ≤ 1 mg/L |  |  |  | 
11 | NNC(=O)c1ccncc1 [ISONIAZID] |  |  |  |  | 0.25 mg/L (≈ 1.82 µM) |  |  |  |  |  |  | 
12 | CCn1cc(C(=O)O)c(=O)c2cc(F)c(N3CCNCC3)cc21 [NORFLOXACIN] | ≤ 1 mg/L | ≤ 1 mg/L | ≤ 5 mg/L | ≤ 5 mg/L |  |  |  |  | ≤ 5 mg/L | ≤ 1 mg/L |  | 
